Source: patent publication US20010044416A1 (priority 2000, published 2001)

Legend:
[1] = system: HBsAg-specific antibodies (anti-HBs); design: species or system BALB/c mice; settings: mouse, in vivo, po
[2] = system: HBsAg-specific antibodies (anti-HBs); design: species or system BALB/c mice; settings: mouse, in vivo
[3] = system: HBsAg-specific antibodies; design: species or system BALB/c mice; settings: mouse, in vivo, po
[4] = in vivo; cited from earlier work

Substance	HBsAg-specific IgG titers, non-CpG ODN versus equivalent dose of CpG ODN [1]	anti-HBs IgG titers in plasma [1]	antibody isotypes (IgG1 Th2-like, IgG2a Th1-like) as indication of Th-bias [1]	enhancement of immune responses (anti-HBs) with IM delivery [2]	HBsAg-specific IgG in plasma [3]	dose causing severe diarrhea [4] [µg]
5′-TCCAGGACTTCTCTCAGGTT-3′ [non-CpG ODN #1982]	no significant difference	much higher levels	predominance of IgG1	not	now detected	–
Cholera toxin [CT]	–	much higher levels	predominance of IgG1	–	–	1 to 5
TCCATGACGTTCCTGACGTT [CpG ODN #1826]	–	much higher levels	equally mixed Th1/Th2 response	enhancement of immune responses	now detected	–
